SMILES strings stand for the structures.

`*/C=C/CCCCCCCCCC(CCCCCCCCC*)COCCOCCOCCOCCOCc1ccc2ccc3cccc4ccc1c2c34` (repeat unit) had a glass transition temperature of -36.00 °C.
The compound `*/C=C/c1ccc(OC(=O)CCCCCCCCC(=O)Oc2cccc(-c3nnc(*)s3)c2)cc1` (repeat unit) registered a glass transition temperature of 37.00 °C.
On to `*/C=C/c1cccc(OC(=O)CCCCCCCCC(=O)Oc2ccc(-c3nnc(*)s3)cc2)c1` (repeat unit), for which the glass transition temperature was found to be 55.00 °C.
`*C(=O)CCCCCCCCC(=O)N1CCN(*)CC1` (repeat unit): the glass transition temperature is 82.00 °C.
Compound `*C(=O)CCCCCCCCC(=O)NC1CCCCN(*)C1` (repeat unit) displayed a glass transition temperature of -46.50 °C.
`*CC#C/C(C#CCOC(=O)CCCCCCCCC(=O)O*)=C\c1ccc(C#Cc2ccc([N+](=O)[O-])cc2)cc1` (repeat unit) yielded a glass transition temperature of 60.00 °C.
Regarding `*CC#C/C(C#CCOC(=O)CCCCCCCCC(=O)O*)=C\c1ccc(C#Cc2ccccc2)cc1` (repeat unit), the glass transition temperature amounted to 60.00 °C.
The compound `*CC(CCCCCCOc1ccc(/N=N/c2ccc(Br)cc2)cc1)COC(=O)CCCCC(=O)O*` (repeat unit) yielded a glass transition temperature of 24.00 °C.
Take `*CC(CCCCCCOc1ccc(/N=N/c2ccc(C(F)(F)F)cc2)cc1)COC(=O)CCCCC(=O)O*` (repeat unit): the glass transition temperature is 44.00 °C.
As to `*CC(CCCCCCOc1ccc(/N=N/c2ccc(Cl)cc2)cc1)COC(=O)CCCCC(=O)O*` (repeat unit), the glass transition temperature came to 9.00 °C.
In turn, `*CCCCC(c1ccc(O)cc1)C(*)c1ccc(O)cc1C` (repeat unit) had a glass transition temperature of 25.00 °C.
Next, `*CCCCCC(*)CC` (repeat unit): -73.00 °C; `*CCCCCC(*)CCC` (repeat unit): -68.00 °C.
Take `*CCCCCC(*)CCCC` (repeat unit): the glass transition temperature was -69.00 °C.
Under `*CCCCCC(*)CCCCCCCC` (repeat unit) stands -72.00 °C.
Under `*CCCCCCCC(=O)OC1COC(*)OC1` (repeat unit) stands 6.50 °C.
On to `*CCCCCCCCC(Cl)C(*)Cl` (repeat unit), for which the glass transition temperature is -30.00 °C.
With `*CCCCCCCCCCC(=O)N(*)C` (repeat unit), the glass transition temperature is -12.00 °C.
Turning to `*CCCCCCCCCCCCCCCCOC(=O)CCCCCCC(=O)O*` (repeat unit), the glass transition temperature was -26.00 °C.
Under `*CCCCCCCCCCNC(=O)CCCCCCCCC(=O)N*` (repeat unit) stands 60.00 °C; under `*CCCCCCCCCCOC(=O)CCCCCCCCC(=O)O*` (repeat unit), -54.00 °C; under `*CCCCCCCCNC(=O)CCCCC(=O)N*` (repeat unit), 50.00 °C.
Consider `*CCCCCCCCOC(=O)NNC(=O)CCCCCCCCC(=O)NNC(=O)O*` (repeat unit), for which the glass transition temperature turned out to be 38.00 °C.
Next, `*CCCCCCOC(=O)CCCCC(=O)O*` (repeat unit): -69.00 °C.
In turn, `*CCCCCCOC(=O)CCCCCCCCC(=O)O*` (repeat unit) returned a glass transition temperature of -38.00 °C.
Next, `*CCCCCNC(=O)CCCCC(=O)N*` (repeat unit): 46.50 °C; `*CCCCCOC(=O)CCCCC(=O)O*` (repeat unit): -69.00 °C; `*CCCCCOC(=O)NNC(=O)CCCCCCCCC(=O)NNC(=O)O*` (repeat unit): 20.00 °C.
In turn, `*CCCCOC(=O)NNC(=O)CCCCCCCCC(=O)NNC(=O)O*` (repeat unit) came in with a glass transition temperature of 56.00 °C.
Next, `*CCCNC(=O)C(Cc1ccccc1)NC(=O)CCCCCCCCC(=O)NC(Cc1ccccc1)C(=O)NCCCOCCOCCO*` (repeat unit): 44.00 °C; `*CCOC(=O)CCCCC(=O)OCCOC(=O)c1ccc(C(=O)O*)cc1` (repeat unit): 8.00 °C; `*CCOCCOC(=O)CCCCCCCC(=O)O*` (repeat unit): -71.00 °C.
On to `*CCOCCOC(=O)CCCCCCCCC(=O)O*` (repeat unit), for which the glass transition temperature was -74.50 °C.
The compound `*Cc1ccc(CNC(=O)CCCCCCCCC(=O)N*)cc1` (repeat unit) gave a glass transition temperature of 115.00 °C.
`*Cc1cccc(CNC(=O)CCCCC(=O)N*)c1` (repeat unit) yielded a glass transition temperature of 84.00 °C.
As for `*NC1CCC(CC2CCC(NC(=O)CCCCCCCCC(*)=O)CC2)CC1` (repeat unit), the glass transition temperature amounted to 144.00 °C.
Compound `*Nc1cc(NC(=O)CCCCC(*)=O)cc(-c2nnc(-c3ccccn3)o2)c1` (repeat unit) had a glass transition temperature of 159.00 °C.
In the case of `*Nc1cc(NC(=O)CCCCCCCCC(*)=O)cc(-c2nnc(-c3ccccn3)o2)c1` (repeat unit), the glass transition temperature is 85.00 °C.
In turn, `*Nc1ccc(C(=O)c2ccc(NC(=O)c3cc(C(*)=O)cc(C(C)(C)C)c3)cc2)cc1` (repeat unit) returned a glass transition temperature of 271.00 °C.
Under `*Nc1ccc(C(c2ccc(NC(=O)c3cc(C(*)=O)cc(C(C)(C)C)c3)cc2)(C(F)(F)F)C(F)(F)F)cc1` (repeat unit) stands 284.10 °C; under `*Nc1ccc(C(c2ccc(NC(=O)c3cc(C(*)=O)cc(C(C)(C)C)c3)cc2)(P2(=O)Oc3ccccc3-c3ccccc32)P2(=O)Oc3ccccc3-c3ccccc32)cc1` (repeat unit), 235.00 °C; under `*Nc1ccc(C2(c3ccc(NC(=O)c4cc(C(*)=O)cc(C(C)(C)C)c4)cc3)c3ccccc3-c3ccccc32)cc1` (repeat unit), 284.00 °C.
As to `*Nc1ccc(NC(=O)CCCCCC(*)=O)cc1` (repeat unit), the glass transition temperature came to 133.00 °C.
Next, `*Nc1ccc(NC(=O)CCCCCCCCC(*)=O)cc1` (repeat unit): 125.00 °C.
`*Nc1cccc(NC(=O)CCCCCCC(*)=O)c1` (repeat unit) returned a glass transition temperature of 115.50 °C.
Take `*Nc1cccc(NC(=O)CCCCCCCCC(=O)Nc2ccc(C(=O)NC(*)=S)cc2)c1` (repeat unit): the glass transition temperature was 265.00 °C.
Compound `*OC(=O)CCCCCCCCC(=O)OC1COC2C(*)COC12` (repeat unit) displayed a glass transition temperature of 3.00 °C.
Compound `*OC(=O)CNC(=O)CCCCCCCCC(=O)NCC(=O)OC1COC2C(*)COC12` (repeat unit) registered a glass transition temperature of 66.00 °C.
In turn, `*OC1CCC(OC(=O)CCCCCCCCC(*)=O)CC1` (repeat unit) gave a glass transition temperature of 66.00 °C.
Under `*O[Si](C)(C)O[Si](C)(C)O[Si](C)(C)OC(C)CCCCC(*)C` (repeat unit) stands -94.00 °C; under `*Oc1c(-c2ccccc2)cc(-c2cc(-c3ccccc3)c(OC(=O)CCCCCCCCC(*)=O)c(-c3ccccc3)c2)cc1-c1ccccc1` (repeat unit), 98.00 °C; under `*Oc1ccc(-c2ccc(NC(=O)c3cc(C(=O)Nc4ccc(-c5ccc(Oc6ccc(C(C)(C)c7ccc(*)cc7)cc6)c(C(F)(F)F)c5)cc4)cc(C(C)(C)C)c3)cc2)cc1C(F)(F)F` (repeat unit), 248.50 °C.
Regarding `*Oc1ccc(/C(=C/c2ccc(-c3ccc(/C=C(\c4ccccc4)c4ccc(OC(=O)CCCCCCCCC(*)=O)cc4)cc3)cc2)c2ccccc2)cc1` (repeat unit), the glass transition temperature is 111.00 °C.
`*Oc1ccc(C(=O)c2cccc(NC(=O)CCCCCCCCC(=O)Nc3cccc(C(=O)c4ccc(*)cc4)c3)c2)cc1` (repeat unit) gave a glass transition temperature of 141.00 °C.
The compound `*Oc1ccc(C2(c3ccc(OC(=O)CCCCC(*)=O)cc3)c3ccccc3-c3ccccc32)cc1` (repeat unit) gave a glass transition temperature of 166.00 °C.
Consider `*Oc1ccc(C2(c3ccc(OC(=O)CCCCCCCCC(*)=O)cc3)c3ccccc3-c3ccccc32)cc1` (repeat unit), for which the glass transition temperature is 151.00 °C.
Next, `*Oc1ccc(NC(=O)CCCCC(=O)Nc2ccc(*)cc2)cc1` (repeat unit): 230.00 °C.
In turn, `*Oc1ccc(NC(=O)CCCCCCC(=O)Nc2ccc(OC3COC4C(*)COC34)cc2)cc1` (repeat unit) displayed a glass transition temperature of 72.50 °C.
For the compound `*Oc1ccc(NC(=O)CCCCCCCC(=O)Nc2ccc(*)cc2)cc1` (repeat unit), the glass transition temperature came to 160.00 °C.
Compound `*Oc1cccc(NC(=O)CCCCCCCCCC(=O)Nc2ccc(*)cc2)c1` (repeat unit) gave a glass transition temperature of 110.00 °C.
Next, `*Oc1ccccc1C(=O)OC(=O)c1ccccc1OC(=O)CCCCC(*)=O` (repeat unit): 55.00 °C; `*Oc1ccccc1C(=O)OC(=O)c1ccccc1OC(=O)CCCCCC(*)=O` (repeat unit): 40.00 °C; `*Oc1ccccc1C(=O)OC(=O)c1ccccc1OC(=O)CCCCCCC(*)=O` (repeat unit): 28.00 °C.
Under `*Oc1ccccc1C(=O)OC(=O)c1ccccc1OC(=O)CCCCCCCC(*)=O` (repeat unit) stands 25.00 °C.
For the compound `*Oc1ccccc1C(=O)OC(=O)c1ccccc1OC(=O)CCCCCCCCC(*)=O` (repeat unit), the glass transition temperature was 28.00 °C.
Consider `*c1ccc(OCCCCCCCCCCCOC(=O)CCCCCCCCC(=O)OCCCCCCCCCCCOc2ccc(-c3nnc(*)s3)cc2)cc1` (repeat unit), for which the glass transition temperature is 52.00 °C.
`*c1ccc2c(c1)C(=O)N(c1ccc(C(=O)Nc3ccc(C(c4ccc(NC(=O)c5ccc(N6C(=O)c7ccc(C(*)(C(F)(F)F)C(F)(F)F)cc7C6=O)c(C)c5)cc4)(C(F)(F)F)C(F)(F)F)cc3)cc1C)C2=O` (repeat unit): the glass transition temperature was found to be 344.00 °C.
With `*c1ccc2c(c1)C(=O)N(c1cccc(C(=O)Nc3ccc(C(c4ccc(NC(=O)c5cccc(N6C(=O)c7ccc(C(*)(C(F)(F)F)C(F)(F)F)cc7C6=O)c5C)cc4)(C(F)(F)F)C(F)(F)F)cc3)c1C)C2=O` (repeat unit), the glass transition temperature turned out to be 250.00 °C.
On to `*c1cccc(NC(=O)CCCCCCC(=O)Nc2cccc(S(*)(=O)=O)c2)c1` (repeat unit), for which the glass transition temperature was found to be 125.00 °C.

Source of the values: the PolyMetriX glass transition set.
